According to patent publication US5082931A, “Type II bacterial Fc receptors” (University of Florida Research Foundation, Inc., priority 1989, dated 1992):
Residues, ends and D or L forms follow the SMILES beside them.

Assays:
Set-up in all cases: species or system group A streptococcus
[1] = tested on: type II Fc receptor on group A streptococcal strain 64/14/HRP; experiment: Inhibition of 125I-labeled IgG binding to type II Fc receptor-positive bacteria by dipeptides or histidine; conditions: whole bacteria 64/14/HRP, 1.5 hr at 37° C., 20,000 cpm 125I human IgG; concentration range, see FIG. 7, FIG. 9
Method: Staphylococcus aureus Cowan I served as the representative type I Fc receptor-positive strain. The group A streptococcal strain 64/14/HRP served as a representative type II Fc receptor-positive strain. The group C streptococcal strain 26RP66 served as a representative type III Fc receptor-positive strain. All strains were grown as stationary cultures in Todd Hewitt broth (Difco) for 18-24 hr at 37° C., harvested by centrifugation and washed in phosphate buffered saline (PBS), pH 7.2.
Glycyl-L-tyrosine, glycyl-L-histidine, glycyl-glycine, glycyl-DL-leucine, glycyl-DL-phenylalanine, and L-histidine were utilized in the tests.
The detection of Fc-reactive proteins on the surface of bacteria was determined by the ability of the bacteria to bind ^125 I-labeled IgG as follows: Briefly, a stock preparation of bacteria was standardized to bind approximately 75% of the 20,000 cpm of labeled IgG added at pH 7.0. Following standardization for the Fc receptor activity, aliquots of bacteria were incubated with ^125 I-labeled IgG and the indicated amount of the dipeptides for 1.5 hr. at 37° C. […] The radioactivity associated with the bacteria was determined in an LKB autogamma counter. The cpm bound to the bacterial pellet were expressed as percent of maximum cpm bound. […]
A standard number of Staphylococcus aureus Cowan strain ( -- ), group C streptococcal strain 26RP66 (.largecircle.--.largecircle.), or the group A streptococcal strain 64/14/HRP ( .circle.--.circle. ) was incubated for 1.5 hr. at 37° C. with 20,000 cpm of ^125 I labeled human IgG in the presence of the indicated amounts of dipeptide. […] The radioactivity associated with the bacteria was determined in an LKB autogamma counter. The cpm bound to the bacterial pellet were expressed as percent of maximum cpm bound.
A standard number of group A streptococci was incubated for 1.5 hr. at 37° C. with 20,000 cpm of the appropriately ^125 I-labeled species IgG in the presence of the indicated amounts of histidine. […] The cpm bound to the bacterial pellet were expressed as percent of maximum cpm bound. […]

[2] = tested on: type IIa Fc receptor (Mr 56,000; receptor for human IgG1, IgG2 and IgG4) of group A streptococcal strain 64/14/HRP; experiment: Inhibition of 125I-labeled IgG1, IgG2, IgG4, pig or rabbit IgG binding to strain 64/14/HRP; conditions: whole bacteria 64/14/HRP, 1.5 hr at 37° C.; for inhibition of binding of labeled human IgG1, IgG2 and IgG4 to the bacteria: varying concentrations, FIG. 8 panels A, B, D; for inhibition of binding of labeled pig or rabbit IgG to the bacteria: FIG. 9
Method: (§1) In the next series of experiments, the ability of the inhibitory dipeptides, glycyl-tyrosine and glycyl-histidine, were tested for their ability to inhibit the binding of each labeled human IgG subclass to the type II receptor-positive 64/14/HRP bacteria. Glycyl-glycine was also included as a negative control.
(§2) A standard number of group A streptococci was incubated for 1.5 hr. at 37° C. with 20,000 cpm of the approprimately ^125 I-labeled human IgG subclasses in the presence of varying concentrations of dipeptide. The bacteria were pelleted by centrifugations of 1000×g for 10 min. and washed twice with 3 ml of veronal buffered saline containing 0.01 M EDTA and 0.1% gelatin. The radioactivity associated with the bacteria was determined in an LKB autogamma counter. The cpm bound to the baterial pellet were expressed as percent of maximum cpm bound. See FIG. 8 wherein Panel A represents the results obtained from the binding of ^125 I IgG1. Panel B represents the results obtained from the binding of ^125 I IgG2. Panel C represents the results obtained from the binding of ^125 I IgG3. Panel D represents the results obtained from the binding of ^125 I IgG4.
In the next series of experiments the effect of histidine, glycyl-histidineor glycyl-tyrosine on the binding of labeled pig or rabbit IgG was tested.
A standard number of group A streptococci was incubated for 1.5 hr. at 37° C. with 20,000 cpm of the appropriately ^125 I-labeled species IgG in the presence of the indicated amounts of histidine. The bacteria were washed as described above. The cpm bound to the bacterial pellet were expressed as percent of maximum cpm bound. In FIG. 9, ( .circle.--.circle. ) represents ^125 I human IgG; ( -- ) represents ^125 I pig IgG; and ( -- ) represents rabbit IgG.

[3] = tested on: type IIb Fc receptor (Mr 38,000; IgG3-specific receptor) of group A streptococcal strain 64/14/HRP; experiment: Inhibition of 125I-labeled human IgG3 binding to strain 64/14/HRP; conditions: whole bacteria 64/14/HRP, 1.5 hr at 37° C., varying concentrations; FIG. 8 panel C
Method: as §1, §2

Structure (SMILES)	inhibition of binding of 125I-labeled human IgG to type II Fc receptor positive bacteria [1]	inhibition of binding of labeled human IgG1, IgG2 and IgG4 to the bacteria [2]	inhibition of binding of labeled pig or rabbit IgG to the bacteria [2]	inhibition of binding of labeled human IgG3 to the bacteria [3]
NCC(=O)N[C@@H](Cc1c[nH]cn1)C(=O)O [glycyl-histidine, glycyl-L-histidine] (H-Gly-His-OH)	inhibition	efficiently inhibit	inhibited	minimal inhibition
NCC(=O)N[C@@H](Cc1ccc(O)cc1)C(=O)O [glycyl-tyrosine, Glycyl-L-tyrosine] (H-Gly-Tyr-OH)	inhibition	efficiently inhibit	inhibited	minimal inhibition
N[C@@H](Cc1c[nH]cn1)C(=O)O [histidine, L-histidine]	inhibited	inhibited	inhibited	minimal inhibition
